In US20240100021A1, “Combination Therapy Schedules to Treat Cancer” (priority 2021, published 2024):
Where two headings read alike, the source gives them in different places.

Tests used:
[1] = cancer patients, cited from earlier work
MOLM14 cells = experiment: MTT cell proliferation assay; format: cell-based; conditions: 48 hrs, 0.038 μM Bis, 0.45 uM Ara-C, 6.3 nM ABT199, alone or combined, versus control
[2] = cited from earlier work
OCI-AML3 cells = experiment: MTT cell proliferation assay; format: cell-based; conditions: continuous exposure 48 hrs, 0.038 μM Bis, 0.26 μM Ara-C, 0.3 μM ABT199, 14 nM Clad, alone or combined, versus control cells
double-stranded DNA = conditions: physiological conditions; cited from earlier work
[3] = patients receiving the drug (Myers et al. 1984); cited from earlier work
[4] = tested on: tumor-cytostatic macrophages; conditions: activation of tumor-cytostatic macrophages (Wang et al. 1984); cited from earlier work
[5] = cited from earlier work; remark: listed apart in the source
[6] = cited from earlier work; remark: listed apart in the source
[7] = cited from earlier work; remark: listed apart in the source
[8] = animals; cited from earlier work
[9] = cited from earlier work; remark: listed apart in the source
[10] = isolated human hepatocytes, in vitro; cited from earlier work
[11] = predominantly to albumin; cited from earlier work
[12] = cited from earlier work; remark: listed apart in the source
[13] = tested on: PARP1 and caspase 3 cleavage in MOLM14 cells; experiment: Western blot of apoptosis markers; format: cell-based; conditions: 48 hrs
[14] = 90 min infusion, 260 mg/m^2, biphasic elimination
[15] = 5 day schedule of 60 min infusions
[16] = three phases of elimination (Alberts et al. 1983)
[17] = trial with doses of 80-250 mg/m^2
[18] = triphasic elimination, first of three single dose studies
[19] = triphasic elimination, last of three single dose studies
[20] = triphasic elimination, second of three single dose studies
[21] = hairy cell leukemia, 0.09 mg/kg/day continuous intravenous infusion over 7 days
[22] = pediatric ALL or AML, 52 mg/m^2, noncompartmental analysis

Nc1nc(F)nc2c1ncn2[C@@H]1O[C@H](CO)[C@@H](O)[C@@H]1O [2-fluoro-ara-A]
factor of increase of plasma trough levels ([1]; 5-day treatment schedule, 25 mg 2-fluoro-ara-AMP/m^2 daily over 30 minutes): about 2 | terminal half-life [1]: approximately 20 hours

Nc1ccn([C@@H]2O[C@H](CO)[C@@H](O)[C@@H]2O)c(=O)n1 [Ara-C, 1β-arabinofuranosylcytosine]
cell proliferation (MOLM14 cells): 89% | plasma radioactivity accounted for by inactive metabolite ara-U ([2]; after the distributive phase): more than 80% | half-life of initial distributive phase ([2]; intravenous, biphasic elimination): about 10 minutes | share of urinary radioactivity excreted as ara-U ([2]; within 24 hours): approximately 90% | cell proliferation (OCI-AML3 cells): 76%

C(=N\NC1=NCCN1)/c1c2ccccc2c(/C=N/NC2=NCCN2)c2ccccc12.Cl.Cl [Bis, 9,10-anthracenedicarboxaldehyde bis[(4,5-dihydro-1H-imidazol-2-yl)hydrazine] dihydrochloride]
affinity constants (double-stranded DNA): above 10^6 M^−1 | ejection fraction, radioangiocardiographic monitoring [3]: no decrease in ejection fraction | electrocardiographic changes [3]: No patients experienced electrocardiographic changes | cell proliferation (MOLM14 cells): 79% | minimal effective in vivo dose [4]: 25 mg/kg | cell proliferation (OCI-AML3 cells): 80% | plasma concentration ([5]; 72-hr infusion study, dose 56 mg/m^2): 12 ± 6 ng/mL | plasma concentration ([5]; 72-hr infusion study, dose 260 mg/m^2): 55 ± 8 ng/mL | plasma clearance ([5]; 72-hr infusion study): 1306±179 ml/min/m^2 | urinary excretion of the dose ([5]; 72-hr infusion study, in 24 hr): 4.6% | administered dose excreted unchanged in the urine ([5]; 90 min infusion, 260 mg/m^2, after 24 hr): 11.3% | initial half-life [5, 14]: 1.08 ± 0.25 h | terminal half-life [5, 14]: 19.03 ± 3.77 h | plasma clearance ([5]; 90 min infusion, 260 mg/m^2): 735 ml/min/m^2 | steady state volume of distribution (Vdss) ([5]; 90 min infusion, 260 mg/m^2): 1845 L/m^2 | dose excreted in the urine [5, 15]: 7.1% | t½ α [5, 15]: 0.9 h | t½ β [5, 15]: 9.7 h | dose excreted in the urine ([5]; human, in vivo): Less than 7% | area under the plasma concentration x time curve ([5]; intravenous dose 260 mg/m^2): 4400 µg·h/mL | area under the plasma concentration x time curve ([5]; intravenous dose 340 mg/m^2): 5700 µg·h/mL | volume of distribution ([5]; one report, interpreted as tissue sequestration): 687 L/m^2 | beta phase of elimination [5, 16]: approximately 1.5 hours | initial distributive phase of elimination [5, 16]: 6 min | administered dose found in the urine ([5]; trial with doses of 80-250 mg/m^2, after 96 hr): 3.4±1.1% | calculated volume of distribution [5, 17]: 42.1 ± 5.9 L/kg | clearance [5, 17]: 17.425 ± 0.85 mL/min/kg | initial half-life [5, 17]: 0.6 h | terminal half-life [5, 17]: 24.7 h | t½ α [5, 18]: 0.0573 h | t½ β [5, 18]: 1.33 h | t½ γ [5, 18]: 26.13 h | t½ α [5, 19]: 0.1 h | t½ β [5, 19]: 1.9 h | t½ γ [5, 19]: 43.9 h | t½ α [5, 20]: 0.05 h | t½ β [5, 20]: 1 h | t½ γ [5, 20]: 8 h | bound to plasma proteins [6]: More than 95% | maximally tolerated dose ([7]; daily×5, repeat every 4 weeks (Spiegel et al. 1982)): 80 mg/m^2 | maximally tolerated dose ([7]; monthly (every 3-4 week) (Von Hoff et al., 1981b)): 260 mg/m^2 | maximally tolerated dose ([7]; monthly, patients with poor bone marrow reserve (Von Hoff et al., 1981b)): 240 mg/m^2 | maximally tolerated dose ([7]; weekly×3 (Alberts et al. 1982)): 200 mg/m^2 | maximally tolerated dose ([7]; weekly×3, patients with poor bone marrow reserve (Alberts et al. 1982)): 150 mg/mg^2 | maximally tolerated dose ([7]; weekly×3, repeat every 4-5 week (B.-S. Yap et al. 1982)): 150 mg/m^2 | cardiotoxicity [8]: not cardiotoxic

Nc1nc(Cl)nc2c1ncn2[C@H]1C[C@H](O)[C@@H](CO)O1 [Clad, 2-chloro-6-amino-9-(2-deoxy-β-D-erythropentofuranosyl) purine]
cell proliferation (OCI-AML3 cells): 87% | mean terminal half-life ([9]; 2 hour infusion 0.12 mg/kg, normal renal function): 5.4 h | mean clearance ([9]; 2 hour infusion 0.12 mg/kg): 16.3 ± 7.03 mL/min/kg | mean steady-state volume of distribution ([9]; 2 hour infusion 0.12 mg/kg): 4.5 ± 2.8 L/kg | average half-life ([9]; after intravenous administration, multi-exponential decline): 6.7 ± 2.5 h | mean steady-state serum concentration [9, 21]: 5.7 ng/mL | systemic clearance [9, 21]: 11.06 mL/min/kg | mean end-of-infusion plasma concentration ([9]; hematologic malignancies, 2 hour infusion 0.12 mg/kg): 48 ± 19 ng/mL | apparent volume of distribution ([9]; human, in vivo): approximately 9 L/kg | cerebrospinal fluid concentrations relative to plasma ([9]; one report): approximately 25%

Nc1nc(Cl)nc2c1ncn2[C@@H]1O[C@H](CO)[C@@H](O)[C@@H]1F [clofarabine, 2-Chloro-9-(2-deoxy-2-fluoro-beta-D-arabinofuranosyl)-9H-purin-6-amine]
metabolism [10]: 0.2% | bound to plasma proteins [11]: 47% | dose excreted in the urine unchanged ([12]; 24-hour urine collections, pediatric studies): 49-60% | systemic clearance [12, 22]: 28.8 L/h/m^2 | volume of distribution at steady-state [12, 22]: 172 L/m^2 | terminal half-life ([12]; pediatric ALL or AML, 52 mg/m^2): 5.2 h

ABT199
cell proliferation (MOLM14 cells): 77% | cell proliferation (OCI-AML3 cells): 79% | cleavage of PARP1 and caspase 3 [13]: caused cleavage of PARP1
